IC50 data for 15 molecules are collected here from patent publication US11878975B2, “Substituted indole compounds useful as TLR inhibitors” (BRISTOL-MYERS SQUIBB COMPANY, priority 2017, dated 2024).

As usually defined, the IC50 is the midpoint of a concentration-inhibition curve.

What all share (type): cell-based
Assay [1] deals with T1, human TLR8 (Homo sapiens, UniProt Q9NR97).
T1 construct: host or cells: HEK-Blue cells
T1 sequence (Q9NR97 27-1041): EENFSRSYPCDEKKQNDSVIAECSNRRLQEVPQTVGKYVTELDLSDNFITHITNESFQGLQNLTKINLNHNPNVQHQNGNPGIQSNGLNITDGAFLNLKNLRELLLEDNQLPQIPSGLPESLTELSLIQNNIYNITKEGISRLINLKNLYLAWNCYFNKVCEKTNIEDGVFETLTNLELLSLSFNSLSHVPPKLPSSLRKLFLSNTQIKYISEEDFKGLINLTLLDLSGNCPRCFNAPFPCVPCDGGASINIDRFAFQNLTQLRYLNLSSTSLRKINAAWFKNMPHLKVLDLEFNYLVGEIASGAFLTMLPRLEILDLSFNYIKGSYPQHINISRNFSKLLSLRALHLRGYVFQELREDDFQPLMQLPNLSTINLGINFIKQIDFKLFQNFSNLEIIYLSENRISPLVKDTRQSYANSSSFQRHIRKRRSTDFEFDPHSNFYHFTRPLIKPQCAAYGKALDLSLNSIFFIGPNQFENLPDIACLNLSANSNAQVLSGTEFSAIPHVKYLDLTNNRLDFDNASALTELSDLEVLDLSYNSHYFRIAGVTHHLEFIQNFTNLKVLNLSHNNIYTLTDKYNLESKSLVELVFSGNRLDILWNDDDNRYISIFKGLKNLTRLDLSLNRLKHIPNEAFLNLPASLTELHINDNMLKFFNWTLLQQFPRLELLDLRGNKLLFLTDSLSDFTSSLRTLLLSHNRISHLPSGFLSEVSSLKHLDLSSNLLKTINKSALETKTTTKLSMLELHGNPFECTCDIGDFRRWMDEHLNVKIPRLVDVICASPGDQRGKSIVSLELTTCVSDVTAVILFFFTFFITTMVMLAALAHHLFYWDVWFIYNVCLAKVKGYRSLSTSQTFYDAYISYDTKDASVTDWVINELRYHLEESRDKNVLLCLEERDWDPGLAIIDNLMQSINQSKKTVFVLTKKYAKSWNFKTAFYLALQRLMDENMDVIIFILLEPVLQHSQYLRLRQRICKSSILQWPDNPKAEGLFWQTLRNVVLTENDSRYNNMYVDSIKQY
Nature of the assay: TLR8 inhibition reporter assay (HEK-Blue cells, SEAP reporter, R848 stimulation). Particulars: HEK-Blue cells overexpressing human TLR8, SEAP reporter, R848 15.9 μM. The gist of the method: (§1)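 HEK-Blue cells with NF-κB/AP-1-driven SEAP reporter, pre-treated 30 min at room temperature with compound (0.05 nM-50 μM). Stimulants: gardiquimod 7.5 μM (TLR7), R848 15.9 μM (TLR8) or ODN2006 5 nM (TLR9). SEAP measured after 22 h at 37° C.; percent inhibition versus agonist-plus-DMSO and known-inhibitor wells.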
(Reporter assays use an easily measured gene product as a stand-in for the process of interest.)

Assay [2] concerns the target T2, human TLR7 (Homo sapiens, UniProt Q9NYK1).
T2 construct: host or cells: HEK-Blue cells
T2 sequence (Q9NYK1 27-1049): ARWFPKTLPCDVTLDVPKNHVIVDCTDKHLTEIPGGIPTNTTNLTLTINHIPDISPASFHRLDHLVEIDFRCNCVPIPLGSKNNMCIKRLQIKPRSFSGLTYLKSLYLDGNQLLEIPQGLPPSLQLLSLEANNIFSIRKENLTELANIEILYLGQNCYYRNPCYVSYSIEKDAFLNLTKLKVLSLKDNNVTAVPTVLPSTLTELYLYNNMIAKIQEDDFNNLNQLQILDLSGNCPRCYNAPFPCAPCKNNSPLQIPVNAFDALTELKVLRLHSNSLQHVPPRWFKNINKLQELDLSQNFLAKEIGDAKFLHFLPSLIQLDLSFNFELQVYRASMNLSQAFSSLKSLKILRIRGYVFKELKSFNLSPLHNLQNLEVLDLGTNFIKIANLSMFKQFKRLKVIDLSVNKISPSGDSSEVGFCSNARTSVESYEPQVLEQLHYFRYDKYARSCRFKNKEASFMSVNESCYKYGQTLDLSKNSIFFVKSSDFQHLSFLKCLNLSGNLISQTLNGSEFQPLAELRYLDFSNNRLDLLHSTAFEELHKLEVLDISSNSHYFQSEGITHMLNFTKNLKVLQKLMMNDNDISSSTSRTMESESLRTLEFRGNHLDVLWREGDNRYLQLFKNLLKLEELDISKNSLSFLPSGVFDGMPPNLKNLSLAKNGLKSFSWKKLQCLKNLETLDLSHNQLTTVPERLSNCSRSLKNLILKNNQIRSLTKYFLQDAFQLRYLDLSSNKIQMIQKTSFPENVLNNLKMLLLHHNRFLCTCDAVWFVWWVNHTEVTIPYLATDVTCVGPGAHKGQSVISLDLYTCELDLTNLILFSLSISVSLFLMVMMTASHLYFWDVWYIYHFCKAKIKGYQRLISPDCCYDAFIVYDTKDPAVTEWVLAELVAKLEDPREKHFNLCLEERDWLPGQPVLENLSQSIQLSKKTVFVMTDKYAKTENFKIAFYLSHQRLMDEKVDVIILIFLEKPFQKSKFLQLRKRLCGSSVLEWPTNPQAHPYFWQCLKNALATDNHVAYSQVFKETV
The assay is described as follows: TLR7 inhibition reporter assay (HEK-Blue cells, SEAP reporter, gardiquimod stimulation). To be noted: HEK-Blue cells overexpressing human TLR7, SEAP reporter, gardiquimod 7.5 μM. In outline:
as §1

The target of assay [3] is T3, human TLR9 (Homo sapiens, UniProt Q9NR96).
T3 construct: host or cells: HEK-Blue cells
T3 sequence (Q9NR96 26-1032): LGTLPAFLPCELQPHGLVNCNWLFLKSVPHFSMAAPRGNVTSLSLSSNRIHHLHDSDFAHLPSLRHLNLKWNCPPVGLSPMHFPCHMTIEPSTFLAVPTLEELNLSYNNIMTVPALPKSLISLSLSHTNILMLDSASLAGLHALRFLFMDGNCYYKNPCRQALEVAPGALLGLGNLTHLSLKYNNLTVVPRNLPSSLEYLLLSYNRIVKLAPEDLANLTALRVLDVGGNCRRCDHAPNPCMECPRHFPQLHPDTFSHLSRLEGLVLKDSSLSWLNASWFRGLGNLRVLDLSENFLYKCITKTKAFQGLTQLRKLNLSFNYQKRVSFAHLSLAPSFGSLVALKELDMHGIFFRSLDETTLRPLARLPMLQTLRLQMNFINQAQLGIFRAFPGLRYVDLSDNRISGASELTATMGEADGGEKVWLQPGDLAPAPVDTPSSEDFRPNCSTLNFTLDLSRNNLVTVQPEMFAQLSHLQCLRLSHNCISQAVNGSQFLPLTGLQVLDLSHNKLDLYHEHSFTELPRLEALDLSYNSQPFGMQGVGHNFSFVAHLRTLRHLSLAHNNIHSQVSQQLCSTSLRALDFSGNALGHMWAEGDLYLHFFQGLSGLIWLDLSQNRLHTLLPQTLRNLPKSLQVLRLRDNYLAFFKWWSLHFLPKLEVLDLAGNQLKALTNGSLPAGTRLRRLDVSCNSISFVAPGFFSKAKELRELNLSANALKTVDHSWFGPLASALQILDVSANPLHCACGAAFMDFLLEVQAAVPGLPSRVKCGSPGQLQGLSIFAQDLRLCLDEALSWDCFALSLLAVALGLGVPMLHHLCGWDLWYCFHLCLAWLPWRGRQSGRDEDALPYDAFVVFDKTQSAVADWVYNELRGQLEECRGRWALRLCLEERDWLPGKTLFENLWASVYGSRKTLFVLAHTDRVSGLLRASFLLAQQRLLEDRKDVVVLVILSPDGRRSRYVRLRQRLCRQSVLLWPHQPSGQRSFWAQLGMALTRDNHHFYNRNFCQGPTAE
Nature of the assay: TLR9 inhibition reporter assay (HEK-Blue cells, SEAP reporter, ODN2006 stimulation). Particulars: HEK-Blue cells overexpressing human TLR9, SEAP reporter, ODN2006 5 nM. The gist of the method: as §1

Bounds are passed on as bounds.

As for `COc1cc(-c2[nH]c3ccc(C4CCC(NCC(F)(F)F)CC4)cc3c2C(C)C)cn2ncnc12` (single isomer, unassigned) [Example 108], the IC50 was determined as 0.038 µM in assay [1], 0.007 µM in assay [2] and 19.8 µM in assay [3].

For `COc1cc(-c2[nH]c3ccc(C4CCC(NCC(F)(F)F)CC4)cc3c2C(C)C)cn2ncnc12` (single isomer, unassigned) [Example 110], the IC50 in assay [1] worked out at 0.396 µM; in assay [2], 0.024 µM; in assay [3], 37 µM.

Take `Cc1cc(-c2[nH]c3ccc(C4CCC(N(C)C)CC4)cc3c2C(C)C)cc(C)n1` (single isomer, unassigned) [Example 114]: the IC50 in assay [1] was 0.02 µM; in assay [2] it was 0.004 µM; in assay [3], 0.515 µM.

As for `COc1cc(-c2[nH]c3ccc(C4CCC(NC(C)=O)CC4)cc3c2C(C)C)cn2ncnc12` (single isomer, unassigned) [Example 115, N-(4-(3-isopropyl-2-(8-methoxy-[1,2,4]triazolo[1,5-a]pyridin-6-yl)-1H-indol-5-yl)cyclohexyl)acetamide], the half-inhibitory concentration (IC50) in assay [1] came to 0.013 µM; in assay [2] it was 0.001 µM; in assay [3] it was 16.1 µM.

As to `COc1cc(-c2[nH]c3ccc(C4CCC(NC(C)=O)CC4)cc3c2C(C)C)cn2ncnc12` (single isomer, unassigned) [Example 116, N-(4-(3-isopropyl-2-(8-methoxy-[1,2,4]triazolo[1,5-a]pyridin-6-yl)-1H-indol-5-yl)cyclohexyl)acetamide], the IC50 was 0.061 µM in assay [1], 0.009 µM in assay [2] and greater than 50 µM in assay [3].

With `CNCC(=O)NC1CCC(c2ccc3[nH]c(-c4cc(C)nc(C)c4)c(C(C)C)c3c2)CC1` (single isomer, unassigned) [Example 129], the IC50 worked out at 0.0039 µM in assay [1], 0.0003 µM in assay [2] and 0.544 µM in assay [3].

For the molecule `CNCC(=O)NC1CCC(c2ccc3[nH]c(-c4cc(C)nc(C)c4)c(C(C)C)c3c2)CC1` (single isomer, unassigned) [Example 130], the IC50 in assay [1] amounted to 0.033 µM; in assay [2] it was 0.005 µM; in assay [3], 0.236 µM.

As for `CNC1CCC(c2ccc3[nH]c(-c4cc(OC)c5ncnn5c4)c(C(C)C)c3c2)CC1` (single isomer, unassigned) [Example 145, 4-(3-isopropyl-2-(8-methoxy-[1,2,4]triazolo[1,5-a]pyridin-6-yl)-1H-indol-5-yl)-N-methylcyclohexanamine], the IC50 amounted to 0.00073 µM in assay [1], 0.00022 µM in assay [2] and 0.569 µM in assay [3].

Take `CNC1CCC(c2ccc3[nH]c(-c4cc(OC)c5ncnn5c4)c(C(C)C)c3c2)CC1` (single isomer, unassigned) [Example 146, 4-(3-isopropyl-2-(8-methoxy-[1,2,4]triazolo[1,5-a]pyridin-6-yl)-1H-indol-5-yl)-N-methylcyclohexanamine]: the IC50 was found to be 0.0037 µM in assay [1], 0.00079 µM in assay [2] and 1.62 µM in assay [3].

Regarding `COCCN(C)C1CCC(c2ccc3[nH]c(-c4cn5ncnc5c(C)c4C)c(C(C)C)c3c2)CC1` (single isomer, unassigned) [Example 152, 4-(2-(7,8-dimethyl-[1,2,4]triazolo[1,5-a]pyridin-6-yl)-3-isopropyl-1H-indol-5-yl)-N-(2-methoxyethyl)-N-methylcyclohexanamine], the IC50 in assay [1] worked out at 0.0034 µM; in assay [2], 0.004 µM; in assay [3], 2.85 µM.

Take `COCCN(C)C1CCC(c2ccc3[nH]c(-c4cn5ncnc5c(C)c4C)c(C(C)C)c3c2)CC1` (single isomer, unassigned) [Example 153, 4-(2-(7,8-dimethyl-[1,2,4]triazolo[1,5-a]pyridin-6-yl)-3-isopropyl-1H-indol-5-yl)-N-(2-methoxyethyl)-N-methylcyclohexanamine]: the IC50 in assay [1] is 0.00072 µM; in assay [2], 0.0005 µM; in assay [3], 2.14 µM.

Regarding `Cc1cc(-c2[nH]c3ccc(C4CCC(C(=O)N5CCN(C)CC5)CC4)cc3c2C(C)C)cn2ncnc12` (single isomer, unassigned) [Example 156], the IC50 in assay [1] is 0.0067 µM; in assay [2], 0.00082 µM; in assay [3], 3.64 µM.

On to `Cc1cc(-c2[nH]c3ccc(C4CCC(C(=O)N5CCN(C)CC5)CC4)cc3c2C(C)C)cn2ncnc12` (single isomer, unassigned) [Example 157], for which the values for the IC50 in assay [1], in assay [2] and in assay [3] were 0.0025 µM, 0.00038 µM and 6.25 µM, respectively.

As for `Cc1cc(-c2[nH]c3ccc(C4CCC(C(=O)N5CCCCC5)CC4)cc3c2C(C)C)cn2ncnc12` (single isomer, unassigned) [Example 159], the figures for the IC50 in assay [1], in assay [2] and in assay [3] were 1.85 µM, 1.69 µM and 28.6 µM, respectively.

Regarding `Cc1cc(-c2[nH]c3ccc(C4CCC(C(=O)N5CCCCC5)CC4)cc3c2C(C)C)cn2ncnc12` (single isomer, unassigned) [Example 160], the IC50 in assay [1] came out at 0.154 µM; in assay [2] it was 0.009 µM; in assay [3], 30.3 µM.
